Test results published in ChEMBL document CHEMBL1126353, “Substituted benzamides with conformationally restricted side chains. 4. Hetero-azabicyclo[x.y.0] derivatives as gastric prokinetic agents” (1992).
Active and inactive are the calls of the source. The rule behind the calls is not given here.

Legend:
[1] = test system: Rattus norvegicus; assay: Prokinetic activity expressed as ability to increase intragastric pressure in rat on subcutaneous administration; format: functional
[2] = Ratio of ability to inhibit apomorphine induced climbing to that of increasing intragastric pressure in rats; format: functional
[3] = biological target: Dopamine receptor (Rattus norvegicus) (UniProt P25115+P19020+P30729+P18901+P61169); assay: Dopamine receptor antagonist activity expressed as ability to inhibit apomorphine-induced climbing behavior in rat on subcutaneous administration.; format: functional, organism-based
[4] = test system: Canis familiaris; assay: Compound was tested for inhibiting apomorphine-induced emesis in dog up to a dose of 10 mg/kg when administered subcutaneously; E - compound found effective; format: functional, organism-based; design: dose 10 mg/kg; conditions: Canis lupus familiaris

| SMILES | ED50 [3] [mg/kg] | Activity [1] [mg/kg] | Ratio [2] | Activity [4] |
| --- | --- | --- | --- | --- |
| COc1cc(N)c(Cl)cc1C(=O)NC1CCN2CC[S+]([O-])CC2C1 (stereo in doubt; 22) [listing 1 of 2 here] |  | 1 |  |  |
| COc1cc(N)c(Cl)cc1C(=O)NC1CCN2CC[S+]([O-])CC2C1 (stereo in doubt; 21) [listing 1 of 2 here] |  | 5 |  |  |
| COc1cc(N)c(Cl)cc1C(=O)NC1CCCN2CCSCC12 (stereo in doubt; 24) [listing 1 of 2 here] |  | 1 | 30 |  |
| COc1cc(N)c(Cl)cc1C(=O)NC1CCCN2CCOCC12 (stereo in doubt; 17) [listing 1 of 2 here] |  | >5 |  |  |
| COc1cc(N)c(Cl)cc1C(=O)NC1CN2Cc3ccccc3CN2C1 | 10 | >1 |  |  |
| COc1cc(N)c(Cl)cc1C(=O)NC1CCN2CCOCC2C1 (stereo in doubt; 14) [listing 1 of 2 here] |  | 0.2 | 350 |  |
| COc1cc(N)c(Cl)cc1C(=O)NC1CN2CC=CCN2C1 | > 50 | >1 |  |  |
| COc1cc(N)c(Cl)cc1C(=O)NC1CN2CCC(c3ccccc3)CN2C1 (stereo not drawn) | 5 | >1 |  |  |
| CCN(CC)CCNC(=O)c1cc(Cl)c(N)cc1OC [METOCLOPRAMIDE] | 0.8 | 1 | 0.8 |  |
| COc1cc(N)c(Cl)cc1C(=O)NC1CCCN2CCSCC12 (stereo in doubt; 23) [listing 1 of 2 here] |  | >5 |  |  |
| COc1cc(N)c(Cl)cc1C(=O)NC1CCN2CCCCN2C1 (stereo not drawn) | 30 | 1 | 30 |  |
| COc1cc(N)c(Cl)cc1C(=O)NC1CCCN2CCOCC12 (stereo in doubt; 18) [listing 2 of 2 here] |  | 1 |  |  |
| COc1cc(N)c(Cl)cc1C(=O)NC1CCN2CCOCC2C1 (stereo in doubt; 15) [listing 2 of 2 here] |  | 1 | 30 |  |
| COc1cc(N)c(Cl)cc1C(=O)NC1CCN2CC[S+]([O-])CC2C1 (stereo in doubt; 22) [listing 2 of 2 here] |  |  |  | Active |

Now from value to molecule, other results behind:

| ED50 [3] [mg/kg] | SMILES | Activity [1] [mg/kg] | Ratio [2] | Activity [4] |
| --- | --- | --- | --- | --- |
| 25 | COc1cc(N)c(Cl)cc1C(=O)NC1CCN2C(C)CCCC2C1 (stereo not drawn) [BRL-20627] | 0.5 | 50 |  |
| > 10 | COc1cc(N)c(Cl)cc1C(=O)NC1CCN2CC[S+]([O-])CC2C1 (stereo in doubt; 21) [listing 2 of 2 here] |  |  |  |
| 30 | COc1cc(N)c(Cl)cc1C(=O)NC1CCCN2CCSCC12 (stereo in doubt; 24) [listing 2 of 2 here] |  |  |  |
| 30 | COc1cc(N)c(Cl)cc1C(=O)NC1CCN2CCOCC2C1 (stereo in doubt; 15) [listing 1 of 2 here] |  |  |  |
| > 25 | COc1cc(N)c(Cl)cc1C(=O)NC1CCCN2CCOCC12 (stereo in doubt; 18) [listing 1 of 2 here] |  |  |  |
| 70 | COc1cc(N)c(Cl)cc1C(=O)NC1CCN2CCOCC2C1 (stereo in doubt; 14) [listing 2 of 2 here] |  |  |  |
| > 25 | COc1cc(N)c(Cl)cc1C(=O)NC1CCN2CCSCC2C1 (stereo not drawn) | 1 |  | Active |
| 5 | COc1cc(N)c(Cl)cc1C(=O)NC1CCCN2CCSCC12 (stereo in doubt; 23) [listing 2 of 2 here] |  |  |  |
| 10 | COc1cc(N)c(Cl)cc1C(=O)NC1CN2CCCCN2C1 | 0.5 | 20 |  |
| 40 | COc1cc(N)c(Cl)cc1C(=O)NC1CCN2C(C)COCC2C1 (stereo not drawn) | 0.2 | 200 |  |
| 30 | COc1cc(N)c(Cl)cc1C(=O)NC1CCCN2CCOCC12 (stereo in doubt; 17) [listing 2 of 2 here] |  |  |  |
